Data taken from patent US7999000B2, “N-(2-amino-phenyl)-acrylamides” (Hoffmann-La Roche Inc., priority 2008, dated 2011).

What was measured:
[1] = tested on: klf2 promoter-luciferase construct in A204 cells; assay: klf2 reporter gene induction (p21 versus klf2 selectivity); format: cell-based; conditions: for p21/klf2 (RP3): relative selectivity at 3 micromolar compared with SNDX-275 (p21/klf2 ratio defined as 1.0); for p21/klf2 (RP10): relative selectivity at 10 micromolar compared with SNDX-275 (p21/klf2 ratio defined as 1.0)
Method: klf2 Reporter Gene Induction By Novel Compounds
The novel compounds of the present invention were tested for their ability to induce klf2 gene expression using a reporter gene assay involving A204 cells transfected with a klf2 promoter-luciferase construct. The klf2 promoter contained the MEF2 binding site for HDAC3/class IIa HDAC complex. Briefly, the day before transfection, A204 cells were seeded at 11,000 cells/well in a 96-well culture plate and incubated at 37 degrees Celsius in 5% CO2 overnight. For transfection, the medium was removed and replaced with 100 microliters/well transfection media previously prepared as follows: 5 microliters serum-free DMEM, 0.15 microliters Fugene 6 reagent, 40 ng klf2-luc, 10 ng GFP were mixed gently and incubated at room temperature for 30 minutes; then 98 microliters DMEM (with 10% FBS, 1% penicillin and streptomycin) was added to the DNA:Fugene 6 reagent complex and mixed gently. After incubating the cells for 24 hours at 37 degrees Celsius in 5% CO2, fresh media and test compounds were added to the wells and the cells further incubated for 15 hours at 37 degrees Celsius in 5% CO2. Finally, 10 ng/ml TNF-a was added and the cells further incubated for 4 hours. Cells were lysed by adding 80 microliters/well of a cell culture lysis reagent (Promega). 50 microliters of each lysate was taken for GFP detection using an excitation wavelength of 486 nm and detection at 527 nm. 100 microliters Luciferase assay reagent (Promega) was then added to every 20 microliters cell lysate for luminometer detection.

HT-29 colon cancer cells = assay: Antiproliferative activity, growth inhibition assay (MTS/WST); format: cell-based; conditions: Homo sapiens, 72 hour, read-out: GI50 (micromolar) HT-29
Method: Antiproliferative Activity Against Cancer Cell Lines By Novel Compounds
The novel compounds of the present invention were tested for their ability to inhibit growth of various cancer cell lines using in vitro growth inhibition assays described below.
Cells were seeded in 96-well culture plates (200 microliters/well at different seeding concentrations depending on cell type) and incubated overnight at 37 degrees Celsius in 5% CO2. After adding compound dilutions to the cells (DMSO concentration kept below 0.5%), the cells were incubated at 37 degrees Celsius in 5% CO2 for 72 hours. The effects on proliferation were determined by addition of MTS reagent (Promega) according to the manufacturer's instruction, followed by incubation for 2 hours at 37 degrees Celsius in 5% CO2, and finally recording the absorbance at 490 nm using an ELISA plate reader.
Similar to MTS assay except that the developer is the CCK-8 reagent (Dojindo) and the plate reader is set to 450 nm absorbance.
GI50 values against HT-29 colon cancer cells for specific representative compounds can be found in Table 3.

[2] = tested on: p21 promoter-luciferase construct in HeLa cells; assay: p21 reporter gene induction; format: cell-based; conditions: relative induction potency compared with SNDX-275 at 3 micromolar
Method: p21 Reporter Gene Induction By Novel Compounds
The novel compounds of the present invention were tested for their ability to induce p21 gene expression using a reporter gene assay involving HeLa cells transfected with a p21 promoter-luciferase construct. The p21 promoter contained the Sp1/Sp3 binding site for HDAC but not the upstream p53 binding site. Briefly, the day before transfection, HeLa cells were seeded at 11,000 cells/well in a 96-well culture plate and incubated at 37 degrees Celsius in 5% CO2 overnight. For transfection, the medium was removed and replaced with 100 microliters/well transfection media previously prepared as follows: 5 microliters serum-free DMEM, 0.15 microliters Fugene 6 reagent, 40 ng p21-luc, 10 ng GFP were mixed gently and incubated at room temperature for 30 minutes; then 98 microliters DMEM (with 10% FBS, 1% penicillin and streptomycin) was added to the DNA:Fugene 6 reagent complex and mixed gently. After incubating the cells for 24 hours at 37 degrees Celsius in 5% CO2, fresh media and test compounds were added to the wells and the cells further incubated for 15 hours at 37 degrees Celsius in 5% CO2. Cells were lysed by adding 80 microliters/well of a cell culture lysis reagent (Promega). 50 microliters of each lysate was taken for GFP detection using an excitation wavelength of 486 nm and detection at 527 nm. 100 microliters Luciferase assay reagent (Promega) was then added to every 20 microliters cell lysate for luminometer detection. […] Induction activity for specific representative compounds can be found in Table 3.

[3] = tested on: histone deacetylase (HeLa nuclear extract); assay: HeLa extract HDAC fluorometric assay; format: biochemical; conditions: relative inhibitory potency compared with SNDX-275 at 30 micromolar
Method: HDAC Inhibition by Novel Compounds: HeLa Extract HDAC Fluorometric Assay
Novel compounds were tested for their ability to inhibit histone deacetylase using an in vitro deacetylation assay. The enzyme source for this assay was HeLa nuclear extract. The substrate consisted of a commercial product containing an acetylated lysine side chain (both HeLa extract and substrate are available commercially from BIOMOL Research Laboratories, Inc., Plymouth Meeting, Pa.). After deacetylation of the substrate by incubation with HeLa nuclear extract, subsequent exposure to a developing reagent produces a fluorophore that is directly proportional to the level of deacetylation. Using the substrate concentration at the Km for the HeLa nuclear extract, the deacetylation assay was performed in the presence of novel compounds at 30 micromolar and the percent enzyme inhibition relative to a known reference HDAC inhibitor (SNDX-275) was determined. […] Inhibitory activity for specific representative compounds can be found in Table 3.

Row | SMILES | GI50 (HT-29 colon cancer cells) [µM] | HD (RP30) [3] [%] | p21/klf2 (RP3) [1] | p21/klf2 (RP10) [1] | p21 (RP3) [2] [%]
1 | CCN(CC)C1CCN(C(C(=O)Nc2ccc(C(F)(F)F)cc2)c2ccc(/C=C/C(=O)Nc3ccccc3N)cc2)C1 (stereo not shown) [Example 7-7, (E)-N-(2-Amino-phenyl)-3-{4-[(3-diethylamino-pyrrolidin-1-yl)-(4-trifluoromethyl-phenylcarbamoyl)-methyl]-phenyl}-acrylamide] | 2.3 | 183 | 2.1 | 2.0 | 230
2 | CN(C)[C@@H]1CCN(C(C(=O)Nc2ccc(C(F)(F)F)cc2)c2ccc(/C=C/C(=O)Nc3ccccc3N)cc2)C1 (stereo partly drawn) [Example 7-6, (E)-N-(2-Amino-phenyl)-3-{4-[((R)-3-dimethylamino-pyrrolidin-1-yl)-(4-trifluoromethyl-phenylcarbamoyl)-methyl]-phenyl}-acrylamide] | 3 | 175 | 2.3 | 2.9 | 216
3 | Nc1ccccc1NC(=O)/C=C/c1ccc(C(C(=O)Nc2ccc(Br)cc2)N2CCC(N3CCCCC3)C2)cc1 (stereo not shown) [Example 7-30, (E)-N-(2-Amino-phenyl)-3-{4-[(4-bromo-phenylcarbamoyl)-(3-piperidin-1-yl-pyrrolidin-1-yl)-methyl]-phenyl}-acrylamide] | 0.7 | 111 | 1.2 | 0.1 | 338
4 | CCN(CCO)C1CCN(C(C(=O)Nc2ccc(Br)cc2)c2ccc(/C=C/C(=O)Nc3ccccc3N)cc2)C1 (stereo not shown) [Example 7-29, (E)-N-(2-Amino-phenyl)-3-[4-((4-bromo-phenylcarbamoyl)-{3-[ethyl-(2-hydroxy-ethyl)-amino]-pyrrolidin-1-yl}-methyl)-phenyl]-acrylamide] | – | 144 | 1.2 | 1.4 | 293

Continued, in another order:

Row | GI50 (HT-29 colon cancer cells) [µM] | HD (RP30) [3] [%] | SMILES | p21/klf2 (RP3) [1] | p21/klf2 (RP10) [1] | p21 (RP3) [2] [%]
5 | 0.4 | 163 | CCN(CC)C1CCN(C(C(=O)Nc2ccc(Cl)cc2)c2ccc(/C=C/C(=O)Nc3ccccc3N)cc2)C1 (stereo not shown) [Example 7] | 0.8 | 1.2 | 187
6 | 0.2 | 159 | CCN(CC)C1CCN(C(C(=O)Nc2ccc(C#N)cc2)c2ccc(/C=C/C(=O)Nc3ccccc3N)cc2)C1 (stereo not shown) [Example 7-16, (E)-N-(2-Amino-phenyl)-3-{4-[(4-cyano-phenylcarbamoyl)-(3-diethylamino-pyrrolidin-1-yl)-methyl]-phenyl}-acrylamide] | 0.7 | 0.9 | 157
7 | 0.7 | 164 | CCN(CC)C1CCN(C(C(=O)Nc2ccc(F)cc2)c2ccc(/C=C/C(=O)Nc3ccccc3N)cc2)C1 (stereo not shown) [Example 7-17, (E)-N-(2-Amino-phenyl)-3-{4-[(3-diethylamino-pyrrolidin-1-yl)-(4-fluoro-phenylcarbamoyl)-methyl]-phenyl}-acrylamide] | 0.7 | 1.0 | 163
